The text below walks through data of patent US20130224223A1, “Compositions and Methods for Treating Neurological Disorders” (GEORGIA REGENTS UNIVERSITY, priority 2007, published 2013).

This assay relates to prefrontal cortical slices. As to the kind of experiment: eIPSC recording in prefrontal cortical slices. It is filed as cell-based, mice. The method, then:
Transverse prefrontal cortical slices (0.3 mm) were prepared from P28-P36 mice using a Vibroslice (Leica VT 10005) in the ice-cold solution, which contained 2.5 mM KCl, 1.25 mM NaH2PO4, 10 mM MgSO4, 0.5 mMCaCl2, 26 mM NaHCO3, 10 mM glucose, and 230 mM sucrose. Slices were allowed to recover for at least 2 hr in ACSF (1 hr at 34° C. followed by 1 hr at 22° C.) in a solution containing 126 mM NaCl, 2.5 mM KCl, 1.25 mM NaH2PO4, 2 mM MgSO4, 2 mM CaCl2, 26 mM NaHCO3, and 10 mM glucose. Slices were placed in the recording chamber and superfused (1.5 ml/min) with ACSF at 34° C. All solutions were saturated with 95% O2/5% CO2. Neurons were visualized with an IR-sensitive CCD camera with a 403 water-immersion lens (Zeiss, Axioskop2 Fsplus) and recorded using whole-cell voltage-clamp techniques (MultiClamp 7008 Amplifier, Digidata 1320A analog-to-digital converter) and pClamp 9.2 software (Axon Instruments). Glass pipettes were filled with the solution containing 125 mM Cs-gluconate, 10 mM CsCl, 1 mM MgCl2, 10 mM HEPES, 1 mM EGTA, 0.1 mM CaCl2, 10 mM sodium phosphocreatine, 4 mM Mg-ATP, 0.3 mM GTP, 0.2 mM leupeptin, and 5 mM lidocaine N-ethylchloride (QX314) (pH 7.2, with the osmolarity adjusted to 280 mOsm with sucrose). The resistance of pipettes was 2-3 MΩ For mIPSC recording, QX314 was omitted in the pipette filling solution, whereas […] was included in the superfusing solution. eIPSCs were generated with a two-concentric bipolar stimulating electrode ([…] pole separation; FHC, ME) positioned about […] from the neuron under recording. Single or paired pulses of 0.2 ms were delivered at 0.1 Hz and synchronized using a Mater-8 stimulator (A.M.P.I). The holding potential for both mIPSCs and eIPSCs was −65 mV. All experiments were done at 34° C. in the presence of 6-cyano-7-nitroquinoxaline-2,3-dione (CNQX, […]) and AP-5 ([…]) to block AMPA/NMDA receptors. Data were collected when series resistance fluctuated within 15% of initial values (8-15 MU), they were filtered at 2 kHz, and they were sampled at 10 kHz.

For the molecule `COc1cc2ncnc(Nc3cccc(Cl)c3)c2cc1OC` [AG1478], the “evoked IPSCs (eIPSCs)” value (substance alone, no other exogenous agent, AG1478/AG879 5 mM [sic]) is “decreased”. Also, for the setting “substance given with exogenous NRG1 (5 nM)”, the “NRG1 potentiation of eIPSCs” value is “prevented”.
